Experiments:
[1] = test system: 3H-wt AAV-2; test: Inhibition of 3H-wt AAV-2 binding to HeLa cells by soluble GAGs; details: 90 min at 4° C.
Experimental: FIG. 2 illustrates that soluble heparin inhibits binding of AAV to the cell surface. After pre-incubation of 3H-wt AAV-2 with increasing concentrations of the indicated GAGs or the GAG analogue dextran sulfate, labeled virus was adsorbed to HeLa cells for 90 minutes at 4° C. Unbound virus was removed by three washes with ice cold binding buffer and radioactivity was quantitated as described in methods. Data is represented as the average % inhibition relative to the CPM bound in the absence of soluble GAG.
(§1) For direct binding assays, ^3H-labeled wtAAV-2 was incubated with cells either attached to plates or in suspension, as indicated, at a ratio of 4×10^11 particles/3×10^5 cells for 90 minutes at 4° C. in HBSB. Cells were then washed 3 times in ice cold HBSB to remove unbound virus, and were solubilized in 0.3 N NaOH. After neutralization with glacial acetic acid, cell-associated radioactivity was quantitated in a scintillation counter. For inhibition studies, and after enzymatic treatments, ^3H-AAV was bound to adherent HeLa cells. Binding to wild type CHO and CHO cell mutants was done with suspended cells. […] Non-specific binding was determined in the presence of 100-fold excess unlabeled wt AAV (previously dialyzed in HBS, 10% glycerol). Binding of Cy3-labeled virus was done on wild type CHO and pgsA-745 cells grown on coverslips. After fixation in 4% paraformaldehyde for 20 minutes at room temperature, cells were mounted on slides and bound Cy3 labeled virus was detected by confocal microscopy. […]
To further examine the observed specificity and to determine whether GAGs were inhibiting binding of the AAV virions to the cell surface, ^3H-wt AAV was incubated with GAGs (heparin, dermatan sulfate, chondroitin sulfate A, chondroitin sulfate C, dextran sulfate) at various concentrations. After incubation with cells, the mixture was washed and cells were solubilized to quantify bound virus. […]

[2] = test system: rAAV-LacZ; test: Inhibition of rAAV-LacZ transduction of HeLa cells by soluble GAGs; type: cell-based, AAV-2
Experimental: FIGS. 1A and 1B illustrate the inhibition of AAV infection by various glycosaminoglycans. In the data shown in FIG. 1A, rAAV was incubated with the indicated concentrations of heparin (solid squares), chondroitin sulfate B (dermatan sulfate) (open circles), chondroitin sulfate A (open diamonds) or chondroitin sulfate C (open triangles) for 1 hour at 37° C. prior to a 1-hour adsorption period of the virus/GAG mixture to HeLa cells for infection. β-galactosidase activity was assayed 44 hours post-infection using a Galacto-Light Plus kit (Tropix Inc.), and measured in a luminometer. Each point denotes the average % decrease in Relative Light Units (RLU) per ug of protein relative to the maximum RLU/μg protein obtained in experiments without GAG. In the data shown in FIG. 1B, HeLa cells were preincubated with increasing concentrations of heparin at 37° C. for 1 hour. After thorough washing, cells were infected with rAAV as described above. Data points represent the average % maximum RLU/ug protein obtained without heparin preincubation.
rAAV-LacZ at an MOI of 2 was incubated in DMEM-H media in the presence or absence of indicated soluble GAGs at 1.0, 5.0, 10, 20, 30 μg/ml for 1 h at 37° C. For infection, rAAV-LacZ or the virus/GAG mixture was incubated with 2×10^5 HeLa cells for 1 h at 37° C. in a 5% CO2 chamber. […]

[3] = test system: cell surface glycosaminoglycans of HeLa cells; test: 3H-AAV binding to HeLa cells after GAG lyase digestion of cell surface GAGs; details: maximum concentration of enzyme tested
Experimental: (§2) FIGS. 3A and 3B illustrate the effect of enzymatic digestion of cell surface glycosaminoglycans on AAV binding and infection. In the data shown in FIG. 3A, HeLa cells were treated with the indicated concentrations of the following GAG lyases: heparitinase (solid squares), heparinase I (open diamonds), chondroitinase ABC (open circles), or chondroitinase AC (open triangles), as described in Example 13, below. After thorough washing, the ability of AAV to bind the cell surface was assessed as described in Example 12, below. Data points represent the average % reduction in AAV binding relative to AAV binding obtained without enzymatic treatment. In the data shown in FIG. 3B, HeLa cells were treated with heparitinase or heparinase I as described herein. After thorough washing, rAAV was incubated with cells for a I hour adsorption period at 37° C. Cells were harvested 44 hours post-infection and assayed for β-galactosidase activity. Results are shown as the average % reduction in AAV transduction relative to transduction observed in the absence of enzymatic treatment. Data points represent the mean and standard deviation of experiments performed in triplicate.
as §1
GAG lyases were reconstituted in phosphate buffered saline (PBS). […] Prior to use, each enzyme was tested for activity by a standard method used to determine specific activity of GAG lyases, except that enzyme activity was monitored under the conditions used for digestion, PBS pH 7.4 at 37° C. […]
Subconfluent HeLa cells were treated with various concentrations of each specific enzyme and assessed for ^3H-AAV binding.

[4] = test system: rAAV-LacZ; test: rAAV-lacZ transduction of HeLa cells with low concentrations of heparin; type: cell-based, AAV-2; details: heparin 0.001 and 0.004 μg/mL, 48 h after infection
Experimental: HeLa cells were infected with rAAV-lacZ virus in the presence or absence of heparin, at the indicated concentrations, for one hour at 37° C. […] Results are reported as the mean and standard deviation of one experiment performed in triplicate.
HeLa cells were infected with rAAV-lacZ virus in the presence or absence of heparin, at concentrations of 0 μg/mL, 0.001 μg/mL, and 0.004 μg/mL, for one hour at 37° C. […] The results of this experiment are shown in FIG. 6 as the mean and standard deviation of one experiment performed in triplicate.

[5] = test system: cell surface glycosaminoglycans of HeLa cells; test: rAAV-LacZ transduction of HeLa cells after GAG lyase digestion; type: cell-based; details: for reduction of rAAV transduction compared to untreated control cells: HeLa cells treated with various concentrations of enzyme
Experimental: as §2
GAG lyases were reconstituted in phosphate buffered saline (PBS). For enzymatic digestion of cell surface GAGs, 3×10^4 HeLa cells were washed and incubated with the indicated concentrations of GAG lyases in PBS containing 0.1%BSA, 0.2% gelatin and 0.1% glucose (digestion buffer) for 1 hour at 37° C. in a 5% CO2 chamber. Cells were then washed four times with digestion buffer and subjected to rAAV infection as described above. Prior to use, each enzyme was tested for activity by a standard method used to determine specific activity of GAG lyases, except that enzyme activity was monitored under the conditions used for digestion, PBS pH 7.4 at 37° C. (Linhardt, (1994) Analysis of glycosaminoglycans with polysaccharide lyases, p. 17.13.17-17.13.32. in K. Janssen (ed.), Current Protocols in Molecular Biology, vol. 3. John Wiley & Sons, Inc., New York). Cells remained attached to the plate after all enzymatic treatments. […]

Molecule: chondroitin sulfate B
- inhibition of AAV binding ([1]; 30 μg/ml): 51%
- inhibition of rAAV transduction (β-galactosidase activity) ([2]; 30 μg/ml GAG, HeLa cells, 44 h post-infection): 71%

Molecule: chondroitinase ABC
- reduction of 3H-AAV binding to the cell surface after enzymatic treatment [3]: did not result in any reduction

Molecule: dextran sulfate
- inhibition of AAV binding ([1]; 30 μg/ml): 36%

Molecule: heparin
- effect on rAAV transduction (β-galactosidase, RLU/μg protein) [4]: enhance rAAV transduction
- inhibition of AAV binding ([1]; 5 μg/ml): 90%
- inhibition of rAAV transduction after preincubation of cells ([2]; HeLa cells preincubated with heparin up to 20 μg/ml, washed before infection): less than 20%

B1: heparitinase: GAG lyase purchased from Sigma; cleaves linkages found in heparan sulfate (protein, UniProt Q59289 25-659, looked up)
Heparin-sulfate lyase: QSSSITRKDFDHINLEYSGLEKVNKAVAAGNYDDAAKALLAYYREKSKAREPDFSNAEKPADIRQPIDKVTREMADKALVHQFQPHKGYGYFDYGKDINWQMWPVKDNEVRWQLHRVKWWQAMALVYHATGDEKYAREWVYQYSDWARKNPLGLSQDNDKFVWRPLEVSDRVQSLPPTFSLFVNSPAFTPAFLMEFLNSYHQQADYLSTHYAEQGNHRLFEAQRNLFAGVSFPEFKDSPRWRQTGISVLNTEIKKQVYADGMQFELSPIYHVAAIDIFLKAYGSAKRVNLEKEFPQSYVQTVENMIMALISISLPDYNTPMFGDSWITDKNFRMAQFASWARVFPANQAIKYFATDGKQGKAPNFLSKALSNAGFYTFRSGWDKNATVMVLKASPPGEFHAQPDNGTFELFIKGRNFTPDAGVFVYSGDEAIMKLRNWYRQTRIHSTLTLDNQNMVITKARQNKWETGNNLDVLTYTNPSYPNLDHQRSVLFINKKYFLVIDRAIGEATGNLGVHWQLKEDSNPVFDKTKNRVYTTYRDGNNLMIQSLNADRTSLNEEEGKVSYVYNKELKRPAFVFEKPKKNAGTQNFVSIVYPYDGQKAPEISIRENKGNDFEKGKLNLTLTINGKQQLVLVP
- reduction of 3H-AAV binding to the cell surface after enzymatic treatment [3]: 73%
- reduction of AAV infection ([5]; 0.425 mIU/ml enzyme, HeLa cells): up to 72%
- reduction of rAAV transduction compared to untreated control cells [5]: 80%

B2: heparinase: GAG lyase purchased from Sigma; cleaves linkages found in heparan sulfate (protein, UniProt Q05819 22-384, looked up)
Heparin lyase I: QQKKSGNIPYRVNVQADSAKQKAIIDNKWVAVGINKPYALQYDDKLRFNGKPSYRFELKAEDNSLEGYAAGETKGRTELSYSYATTNDFKKFPPSVYQNAQKLKTVYHYGKGICEQGSSRSYTFSVYIPSSFPDNATTIFAQWHGAPSRTLVATPEGEIKTLSIEEFLALYDRMIFKKNIAHDKVEKKDKDGKITYVAGKPNGWKVEQGGYPTLAFGFSKGYFYIKANSDRQWLTDKADRNNANPENSEVMKPYSSEYKTSTIAYKMPFAQFPKDCWITFDVAIDWTKYGKEANTILKPGKLDVMMTYTKNKKPQKAHIVNQQEILIGRNDDDGYYFKFGIYRVGNSTVPVTYNLSGYSETAR
- reduction of 3H-AAV binding to the cell surface after enzymatic treatment [3]: 66%
- reduction of rAAV transduction compared to untreated control cells [5]: 80%

B3: chondroitinase AC: GAG lyase from Seikagagku; cleaves only chondroitin sulfate type A and C (protein, UniProt Q59288 23-700, looked up)
Chondroitinase-AC: QQTGTAELIMKRVMLDLKKPLRNMDKVAEKNLNTLQPDGSWKDVPYKDDAMTNWLPNNHLLQLETIIQAYIEKDSHYYGDDKVFDQISKAFKYWYDSDPKSRNWWHNEIATPQALGEMLILMRYGKKPLDEALVHKLTERMKRGEPEKKTGANKTDIALHYFYRALLTSDEALLSFAVKELFYPVQFVHYEEGLQYDYSYLQHGPQLQISSYGAVFITGVLKLANYVRDTPYALSTEKLAIFSKYYRDSYLKAIRGSYMDFNVEGRGVSRPDILNKKAEKKRLLVAKMIDLKHTEEWADAIARTDSTVAAGYKIEPYHHQFWNGDYVQHLRPAYSFNVRMVSKRTRRSESGNKENLLGRYLSDGATNIQLRGPEYYNIMPVWEWDKIPGITSRDYLTDRPLTKLWGEQGSNDFAGGVSDGVYGASAYALDYDSLQAKKAWFFFDKEIVCLGAGINSNAPENITTTLNQSWLNGPVISTAGKTGRGKITTFKAQGQFWLLHDAIGYYFPEGANLSLSTQSQKGNWFHINNSHSKDEVSGDVFKLWINHGARPENAQYAYIVLPGINKPEEIKKYNGTAPKVLANTNQLQAVYHQQLDMVQAIFYTAGKLSVAGIEIETDKPCAVLIKHINGKQVIWAADPLQKEKTAVLSIRDLKTGKTNRVKIDFPQQEFAGATVELK
- reduction of 3H-AAV binding to the cell surface after enzymatic treatment [3]: did not result in any reduction

From patent publication US6703237B2, “Methods and formulations for mediating adeno-associated virus (AAV) attachment and infection and methods for purifying AAV” (priority 1998, dated 2004)
